Test results: PubChem BioAssay (NCI)
Where “and” joins values, the source holds several entries; their conditions need not be identical. Identical values can stand only once.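 Test compounds were applied to cells in 96-well plates for 48 hours at 5 doses. Abbreviation: GI50, concentration required for 50% inhibition of growth. TGI: total growth inhibition.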

Key:
Assay in all cases: DTP human tumour cell line panel, 48 h
SK-MEL-2 melanoma = tested on: SK-MEL-2 melanoma
HCT-116 colon = tested on: HCT-116 colon
CCRF-CEM leukemia = tested on: CCRF-CEM leukemia
SF-268 CNS = tested on: SF-268 CNS
U251 CNS = tested on: U251 CNS
EKVX NSCLC = tested on: EKVX NSCLC
NCI-H460 lung = tested on: NCI-H460 lung
SNB-19 CNS = tested on: SNB-19 CNS
OVCAR-8 ovarian = tested on: OVCAR-8 ovarian
MOLT-4 leukemia = tested on: MOLT-4 leukemia
SK-OV-3 ovarian = tested on: SK-OV-3 ovarian
SR leukemia = tested on: SR leukemia
MDA-MB-231 breast = tested on: MDA-MB-231 breast
BT-549 breast = tested on: BT-549 breast

SMILES	TGI (SK-MEL-2 melanoma)	TGI (HCT-116 colon)	TGI (CCRF-CEM leukemia)	TGI (SF-268 CNS)	TGI (U251 CNS)	TGI (EKVX NSCLC)	TGI (NCI-H460 lung)	TGI (SNB-19 CNS)	TGI (OVCAR-8 ovarian)	TGI (MOLT-4 leukemia)	TGI (SK-OV-3 ovarian)	TGI (SR leukemia)	TGI (MDA-MB-231 breast)	TGI (BT-549 breast)	GI50 (MDA-MB-231 breast)	GI50 (U251 CNS)	GI50 (BT-549 breast)	GI50 (SK-OV-3 ovarian)
CC(C)(CN1CCCCC1)C(=O)/C=C/c1ccc(Br)cc1	9.04 µM	8.08 µM	9.34 µM	7.08 µM	8.11 µM	9.13 µM	> 20.4 µM	4.75 µM	6.98 µM	6.87 µM	8.18 µM	7.68 µM	–	–	–	–	–	–
COC(=O)C1CCC(=O)N1CN(C(C)=O)c1cccc(O)c1 (configuration not stated)	> 100 µM	> 100 µM	–	> 100 µM	> 100 µM	> 100 µM	> 100 µM	> 100 µM	> 100 µM	> 100 µM	> 100 µM	–	> 100 µM	–	–	–	–	–
CCOC(=O)c1c(NC(=O)c2ccccc2)c(C#N)c2n1CCCCC2	–	> 100 µM	> 100 µM	> 100 µM	> 100 µM	> 100 µM	> 100 µM	> 100 µM	> 100 µM	> 100 µM	> 100 µM	> 100 µM	> 100 µM	–	–	–	–	–
Cc1c(C)c(S(=O)(=O)N(CCCCN)OCCCN)c(C)c2c1OC(C)(C)CC2	24.9 µM	35.8 µM	98.3 µM	49.6 µM	> 100 µM	31.9 µM	41.2 µM	37.3 µM	42 µM	75.6 µM	33.8 µM	> 100 µM	99.4 µM	–	–	–	–	–
O=C1CC(c2ccc(Cl)cc2)=Nc2ccccc2N1	> 100 µM	59.6 µM	41.9 µM	> 100 µM	75.6 µM	> 100 µM	> 100 µM	> 100 µM	76.6 µM	> 100 µM	97.3 µM	> 100 µM	–	–	–	–	–	–
COC(=O)[C@@]12OC[C@]34C([C@@H](O)C1O)[C@@]1(C)CC(=O)C(OC(=O)CC(C)C(F)(F)F)=C(C)C1C[C@H]3OC(=O)[C@H](O)[C@H]42 (some centres not stated)	15.5 µM	> 62.5 µM	> 62.5 µM	56.8 µM	> 62.5 µM	> 62.5 µM	> 62.5 µM	22.4 µM	> 62.5 µM	19.4 µM	> 62.5 µM	19.9 µM	–	–	–	–	–	–
NNC(=O)C(=O)NN=C(C(Cl)(Cl)CO)C(Cl)(Cl)CO	> 100 µM	66.1 µM	61.2 µM	> 100 µM	53.2 µM	> 100 µM	> 100 µM	> 100 µM	57.9 µM	50.7 µM	> 100 µM	50.6 µM	–	–	–	–	–	–
c1cc(-c2ccc(-c3ccsc3)s2)cs1	–	> 100 µM	44.4 µM	> 100 µM	49.7 µM	> 100 µM	> 100 µM	–	> 100 µM	> 100 µM	> 100 µM	> 100 µM	–	–	–	–	–	–
Cc1[nH]n(-c2nc3c(c(=O)[nH]2)CCCC3)c(=O)c1CCO	> 100 µM	> 100 µM	> 100 µM	> 100 µM	> 100 µM	> 100 µM	> 100 µM	> 100 µM	> 100 µM	> 100 µM	> 100 µM	–	> 100 µM	–	–	–	–	–
COc1ccc(-c2c(C3=NCCCN3)nnn2-c2ccccc2)cc1	> 100 µM	> 100 µM	> 100 µM	> 100 µM	> 100 µM	> 100 µM	> 100 µM	> 100 µM	> 100 µM	> 100 µM	> 100 µM	> 100 µM	–	–	–	–	–	–
C1CSCCSCCCS[C@@H]2CCCCC2SC1 (some centres not stated)	> 100 µM	> 100 µM	88.7 µM	> 100 µM	> 100 µM	> 100 µM	> 100 µM	> 100 µM	> 100 µM	–	> 100 µM	–	–	–	–	–	–	–
Cc1cc2nc3c(C#N)c(-c4ccccc4)/c(=C\Nc4ccc(F)cc4)c(=O)n3c2cc1C	> 100 µM	> 100 µM	> 100 µM	> 100 µM	> 100 µM	> 100 µM	> 100 µM	80.9 µM	> 100 µM	–	> 100 µM	–	> 100 µM	> 100 µM	–	–	–	–
COc1cc([C@@H]2c3cc4c(cc3[C@@H](Nc3ccc(NC(=O)c5cc([N+](=O)[O-])cn5C)cc3)[C@H]3COC(=O)[C@H]23)OCO4)cc(OC)c1O	–	> 100 µM and 10 µM	0.14 µM	> 33.5 µM	> 57.5 µM	> 100 µM	0.174 µM and 0.0745 µM	> 44.5 µM	1.04 µM	–	> 100 µM and 19.1 µM	–	17.3 µM and 14.6 µM	> 100 µM	1.34 µM and 4.74 µM	0.0436 µM and 0.337 µM	0.515 µM	0.104 µM and 0.262 µM
CCOC(=O)/C(=C/c1ccccn1)C(=O)c1ccccc1	28.9 µM	27.3 µM	> 31 µM	44 µM	27.4 µM	42.8 µM	> 62.8 µM	31.8 µM	31.4 µM	26 µM	36.7 µM	14.2 µM	–	–	–	–	–	–
